{"source": "patent US20240425855A1", "about": "“NUCLEIC ACID-[…] RNAS FOR TRIGGER-[…]” (Hoffmann-La Roche Inc., priority 2021, published 2024)", "key": {"[1]": {"system": "K4/K19 tetracycline-responsive ribozyme-switch", "assay": "K4/K19 tetracycline-responsive ribozyme-switch controlling GFP expression in stably transfected cells (FACS)", "assay_type": "cell-based, CHO", "settings": "50 μM tetracycline concentration; GFP readout", "method": "The method according to the current invention is exemplified first in the following using the K4/K19 tetracycline-responsive ribozyme-switch generated by Beilstein et al. (ACS Synth. Biol., […] (2015) 526-534). This is presented solely as an illustration of the method according to the invention and shall not be construed as limitation thereof. The true scope is set forth in the appended claims.\nWhilst the output measurement was different (Luciferase vs GFP) a 1.9× fold-increase at 50 μM tetracycline concentration was achieved (FIG. 4 and FIG. 5).\nFor testing and screening RNA-switches that control the mRNA degradation of a GFP reporter were cloned into the front plasmid, whereas the red-shifted iRFP gene was cloned into the back plasmid and was used for fluorescence normalization purposes. Expressed genes were placed under the control of a strong promoter (SV40). The RNA-switches constructs were cloned downstream of the GFP gene and before the bovine growth hormone polyadenylation (bGH-polyA) signal sequence. For each construct, both the complementary and anti-complementary strands were ordered as 5′-phosphorylated ssDNA oligonucleotides at Microsynth AG (Belgach, Switzerland) and were annealed by snap cooling at 0.166 μM concentration. […]"}, "[2]": {"system": "Env140-based LNA-regulatable ribozyme (cell lines S69 and S70)", "assay": "LNA-activation assay and flow cytometry of GFP expression", "set-up": "species or system CHO", "settings": "stable cell lines with inducible/switchable construct and inactive construct; FACS", "method": "S69 and S70, were seeded at 50,000 cells/well into a flat-bottom round wells 96-well microplate, in 200 μL media, and incubated in standard static cell culture condition with or without 12.5 μM LNA oligonucleotide added from three to seven days, after which a 70 μL aliquot was removed and analyzed by flow cytometry. Flow cytometry was performed on a 4-6 color BD FACSCanto™ or FACS Celesta™ System using the FITC channel for the evaluation of GFP expression, and APC channel for iRFP expression. The population of cells was gated to avoid cell doublets detected by the forward and side scattering."}}}
{"compound": "CN(C)[C@@H]1C(O)=C(C(N)=O)C(=O)[C@@]2(O)C(O)=C3C(=O)c4c(O)cccc4[C@@](C)(O)[C@H]3C[C@@H]12", "note": "[tetracycline]", "values": [{"measurement": "fold-increase (GFP output)", "setting": "[1]", "value": 1.9, "unit": "fold"}]}
{"compound": "ATTGTGCCTGAGGGTAGT (all phosphorothioate, sugars by position and methylation of C not given here; some nucleotides are LNA)", "values": [{"measurement": "shift of GFP fluorescence upon application of the LNA", "setting": "[2]", "value": "fluorescence is shifted"}]}
